Results: PubChem BioAssay (NCI)
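48-hour exposure; five concentrations; linearly interpolated endpoints. TGI: total growth inhibition.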

Tests used:
Test in all cases: DTP human tumour cell line panel, 48 h
786-0 renal = tested on: 786-0 renal
A498 renal = tested on: A498 renal
A549 NSCLC = tested on: A549 NSCLC
ACHN renal = tested on: ACHN renal
BT-549 breast = tested on: BT-549 breast
CAKI-1 renal = tested on: CAKI-1 renal
CCRF-CEM leukemia = tested on: CCRF-CEM leukemia
COLO 205 colon = tested on: COLO 205 colon
DU-145 prostate = tested on: DU-145 prostate
EKVX NSCLC = tested on: EKVX NSCLC
HCT-116 colon = tested on: HCT-116 colon
HCT-15 colon = tested on: HCT-15 colon
HL-60(TB) leukemia = tested on: HL-60(TB) leukemia
HOP-62 NSCLC = tested on: HOP-62 NSCLC
HOP-92 NSCLC = tested on: HOP-92 NSCLC
HT29 colon = tested on: HT29 colon
K-562 leukemia = tested on: K-562 leukemia
KM12 colon = tested on: KM12 colon
LOX IMVI melanoma = tested on: LOX IMVI melanoma
M14 melanoma = tested on: M14 melanoma
MALME-3M melanoma = tested on: MALME-3M melanoma
MDA-MB-231 breast = tested on: MDA-MB-231 breast
MDA-MB-435 = tested on: MDA-MB-435
MDA-N = tested on: MDA-N
MOLT-4 leukemia = tested on: MOLT-4 leukemia
NCI-H226 lung = tested on: NCI-H226 lung
NCI-H23 lung = tested on: NCI-H23 lung
NCI-H460 lung = tested on: NCI-H460 lung
NCI-H522 lung = tested on: NCI-H522 lung
NCI/ADR-RES ovarian = tested on: NCI/ADR-RES ovarian
OVCAR-3 ovarian = tested on: OVCAR-3 ovarian
OVCAR-4 ovarian = tested on: OVCAR-4 ovarian
OVCAR-5 ovarian = tested on: OVCAR-5 ovarian
OVCAR-8 ovarian = tested on: OVCAR-8 ovarian
PC-3 prostate = tested on: PC-3 prostate
RPMI-8226 leukemia = tested on: RPMI-8226 leukemia
SF-268 CNS = tested on: SF-268 CNS
SF-295 CNS = tested on: SF-295 CNS
SF-539 CNS = tested on: SF-539 CNS
SK-MEL-2 melanoma = tested on: SK-MEL-2 melanoma
SK-MEL-28 melanoma = tested on: SK-MEL-28 melanoma
SK-MEL-5 melanoma = tested on: SK-MEL-5 melanoma
SK-OV-3 ovarian = tested on: SK-OV-3 ovarian
SN12C renal = tested on: SN12C renal
SNB-19 CNS = tested on: SNB-19 CNS
SNB-75 CNS = tested on: SNB-75 CNS
SW-620 colon = tested on: SW-620 colon
T-47D breast = tested on: T-47D breast
TK-10 renal = tested on: TK-10 renal
U251 CNS = tested on: U251 CNS
UACC-257 melanoma = tested on: UACC-257 melanoma
UACC-62 melanoma = tested on: UACC-62 melanoma
UO-31 renal = tested on: UO-31 renal

Measured: TGI

Cc1cc(-c2c(Br)cc(C(=O)O)n2C)on1
> 100 µM: all assays above
